The text below walks through data of patent publication US5624894A, “Brain-enhanced delivery of neuroactive peptides by sequential metabolism” (University of Florida, priority 1995, dated 1997).

For data set [1] the following is noted: ACTH4-9 analog, behavioral effects; cited from earlier work.
The subject of a further data set is Swiss Webster mice. Nature of the data set: Methohexital (barbiturate)-induced sleeping time in mice after i.v. injection. The format is in vivo. Conditions: for methohexital induced sleeping time, individual animals / methohexital induced sleeping time, mean: methohexital 90 mg/kg i.p. 10 min later. From the text: Two representative chemical delivery systems (CDS's) of the invention for the TRH analog [Leu^2 ]-TRH, i.e., compound (8) of Scheme I/EXAMPLE 8, which has an alanine spacer, and compound (12) of Scheme II/Example 12, which has an alanine-alanine spacer, were studied for their effects on the barbiturate-induced sleeping time in mice. TRH is known to antagonize the reduction in cholinergic activity induced by barbiturates. Thus, the activational effects of the CDS's for TRH analogs on cholinergic neurons can be measured by quantitating the antagonism of pentobarbital-induced sleeping and barbiturate-induced reduction in cholinergic neuronal activity.
Swiss Webster mice weighing 30±2 g were used. The compounds were dissolved in a vehicle consisting of DMSO, ethanol and 50% (w/w) 2-hydroxypropyl-β-cyclodextrin at a ratio of 1:2:1 (15 mg/ml). CDS's at a dose of 30 mg/kg were injected in the animals through the tail vein. Vehicle only and an equimolar dose of TRH and [Leu^2 ]-TRH, 10 mg/kg, were also administered to compare CNS activities. Ten minutes after i.v. injection of the compound, each animal received an intraperitoneal injection of sodium methohexital solution (45 mg/ml) at a dose of 90 mg/kg. The sleeping time was recorded as the time elapsed from the onset of loss of the […] until the reflex was regained. Each compound and the vehicle control were tested on 5-11 animals. The statistical analysis was performed using the Student's t test.

Data set [2] has as its system opioid ([^3 H]diprenorphine-based competitive assay). The data set can be described thus: [3H]diprenorphine-based competitive assay. In kind it is binding. To be noted: read-out: 50 percent inhibitory concentration (IC50). From the text: The test procedure is described hereinbelow following the EXAMPLES, and the results are shown in Tables 5-8 and FIGS. 3-5 for (A) where [SEQ. ID NO. 27] YAGFL is [D-Ala^2 ]-[D-Leu]-enkephalin; i.e., Compound (64) in the EXAMPLES. The targetor-peptide conjugates (C), such as compound (70), are weak opioids. The 50 percent inhibitory concentration (IC50) measured with [^3 H]diprenorphine-based competitive assay is about 10^-7 M, an order of magnitude less than the IC50 of about 10^-8 M for the enkephalin analogs. At the measured 500 to 700 pmol/g tissue concentration, even these weak opioids exert significant analgesic activity. The enkephalin analog may also be released slowly from the targetor-peptide conjugate in vivo, and contribute to the CNS activity. No analgesia was observed after the intravenous administration of the unmanipulated enkephalins, which are membrane-impermeable and unprotected toward various peptide-degrading enzymes, nor after the injection of the partially conjugated (either with the targetor or with cholesteryl) peptides. Modification of the spacer (S) function may allow for the peptidolytic release of the parent peptide from the conjugate at a desired rate, depending on the therapeutic objective.

[3] abbreviates: Table 1 experiment, 10 mg/kg i.v. (equimolar), mice.
Setting [4] is: Table 2 experiment, 10 mg/kg i.v., mice.
The mark [5] stands for this setting: Table 1 experiment, CDS 30 mg/kg i.v., mice.

Values joined by “and” are separate entries in the source; they are usually repeats but may differ in a detail not shown here. Equal entries are not always repeated. Square brackets hold non-standard residues; d marks the D form. Ends that are not written are not given here. Peptide text beside a SMILES is read from it. * marks the point of attachment. O(cholesteryl) = CC(C)CCC[C@@H](C)[C@H]1CC[C@H]2[C@@H]3CC=C4C[C@@H](O*)CC[C@]4(C)[C@H]3CC[C@]12C; Nicotinoyl(1-Me-1,4-dihydro) = CN1C=CCC(C(=O)*)=C1; pGlu = O=C1CC[C@@H](C(=O)O)N1; X1 = C[n+]1cccc(C(=O)*)c1

As to “Org 2766: very active ACTH4-9 analog with oxidized methionine at 4, D-lysine at 8, phenylalanine at 9 (MEHF[dK]F; not fully specified (residue 1); printed as Met Glu His Phe Lys Phe)”, the potentiation in data set [1] was 1000 fold.
Turning to `CC(C)C[C@H](NC(=O)[C@@H]1CCC(=O)N1)C(=O)N1CCC[C@H]1C(N)=O` [[Leu^2]-TRH, PyroGlu-Leu-Pro-NH2] ([pGlu]-Leu-Pro-NH2), in the data set on Swiss Webster mice (setting [3]), the “methohexital induced sleeping time, individual animals” value was 33.95 min and 37.37 min and 28.22 min and 15.03 min and 33.63 min and 20.90 min and 27.97 min and 36.80 min; the “methohexital induced sleeping time, mean” value came to 29.23 min. Also, in the data set with Swiss Webster mice (setting [4]), the “methohexital induced sleeping time, individual animals” value was 15.18 min and 11.95 min and 12.47 min and 11.17 min and 8.53 min and 8.02 min; the “methohexital induced sleeping time, mean” value is 11.22 min. Moreover, the “effect on barbiturate-induced sleeping time (in words)” value in the data set with Swiss Webster mice (first experiment (Table 1), compared to control or [Leu2]-TRH) is “no significant difference between the control and [Leu^2 ]-TRH”. For the same compound, the “behavior / symptoms of animals after i.v. administration” value in the data set with Swiss Webster mice (mice, i.v.) is recorded as “a few animals (1-2) showed the same symptoms as in the case of TRH”. The “effect on sleeping time (in words)” value in the data set on Swiss Webster mice (second experiment (Table 2), compared to TRH or vehicle control) is recorded as “significantly reduced”.
With `CC(C)CCC[C@@H](C)[C@H]1CC[C@H]2[C@@H]3CC=C4C[C@@H](OC(=O)CNC(=O)[C@@H]5CCCN5C(=O)[C@H](CC(C)C)NC(=O)[C@H](CCC(N)=O)NC(=O)[C@H](C)NC(=O)C5=CN(C)C=CC5)CC[C@]4(C)[C@H]3CC[C@]12C` [Compound (8), 1.4-Dihydrotrigonellyl-Ala-Gln-Leu-Pro-Gly-Cholesteryl Ester] ({Nicotinoyl(1-Me-1,4-dihydro)}-AQLPG-{O(cholesteryl)}), in the data set with Swiss Webster mice (setting [5]), the “methohexital induced sleeping time, individual animals” value is 18.23 min and 15.33 min and 11.90 min and 17.27 min and 46.07 min and 18.58 min and 15.73 min and 34.43 min and 16.15 min; the “methohexital induced sleeping time, mean” value was determined as 21.52 min; the “No. of Death” value is 2.
As for `CC(C)C[C@@H](NC(=O)[C@H](Cc1ccccc1)NC(=O)CNC(=O)[C@@H](C)NC(=O)[C@H](Cc1ccc(O)cc1)NC(=O)[C@H](C)NC(=O)c1ccc[n+](C)c1)C(=O)O` [(70), Trigonellyl-Ala-Tyr-D-Ala-Gly-Phe-D-Leu-OH Methylsulfate] (X1-AY[dA]GF[dL]-OH), in data set [2], the IC50 was ~100 nM.
